Assays:
Experiment in all cases: relative viability (nuclei count vs DMSO), 5 days (fraction); higher = more cells survive
[1] = system: BEN
Method in brief: (§1)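 For relative viability, nuclei counts in treated wells were divided by those in vehicle wells. Lung cancer cell lines had been pin-tool dosed in 1536-well plates the day after seeding and cultured for 5 days, then fixed and stained in one step (final 0.05% Triton X-100, 1% formaldehyde, 1 ug/ml Hoechst) and imaged at 4×. Doses were one drug alone or a fixed anchor-drug dose plus five library-drug doses (not always all listed) in √10 steps, and values are duplicate-plate medians.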

[2] = system: EKVX
Method in brief: as §1

[3] = system: HARA
Method in brief: as §1

[4] = system: HCC-366
Method in brief: as §1

[5] = system: HCC-827
Method in brief: as §1

[6] = system: LC-2-ad
Method in brief: as §1

[7] = system: LOU-NH91
Method in brief: as §1

[8] = system: NCI-H1355
Method in brief: as §1

[9] = system: NCI-H1395
Method in brief: as §1

[10] = system: NCI-H1437
Method in brief: as §1

[11] = system: NCI-H1734
Method in brief: as §1

[12] = system: NCI-H1792
Method in brief: as §1

[13] = system: NCI-H2009
Method in brief: as §1

[14] = system: NCI-H2087
Method in brief: as §1

[15] = system: NCI-H2170
Method in brief: as §1

[16] = system: NCI-H2228
Method in brief: as §1

[17] = system: NCI-H2405
Method in brief: as §1

[18] = system: NCI-H596
Method in brief: as §1

[19] = system: NCI-H647
Method in brief: as §1

[20] = system: NCI-H661
Method in brief: as §1

[21] = system: SK-LU-1
Method in brief: as §1

[22] = system: SK-MES-1
Method in brief: as §1

NC(=O)Nc1cc(-c2cccc(F)c2)sc1C(=O)N[C@H]1CCCNC1 [AZD7762] + Cc1nc(NC(=O)N2CCC[C@H]2C(N)=O)sc1-c1ccnc(C(C)(C)C(F)(F)F)c1 [Alpelisib] (partner 2 µM)
relative viability ([1]; first compound 0.01 µM): 1.21 | relative viability ([1]; first compound 0.03162 µM): 0.992 | relative viability ([1]; first compound 0.1 µM): 0.883 | relative viability ([1]; first compound 0.3162 µM): 1.06 | relative viability ([1]; first compound 1 µM): 0.845 | relative viability ([2]; first compound 0.01 µM): 0.846 | relative viability ([2]; first compound 0.03162 µM): 0.845 | relative viability ([2]; first compound 0.1 µM): 0.805 | relative viability ([2]; first compound 0.3162 µM): 0.787 | relative viability ([2]; first compound 1 µM): 0.468 | relative viability ([3]; first compound 0.01 µM): 0.889 | relative viability ([3]; first compound 0.03162 µM): 0.887 | relative viability ([3]; first compound 0.1 µM): 0.825 | relative viability ([3]; first compound 0.3162 µM): 0.751 | relative viability ([3]; first compound 1 µM): 0.824 | relative viability ([4]; first compound 0.01 µM): 0.45 | relative viability ([4]; first compound 0.03162 µM): 0.521 | relative viability ([4]; first compound 0.1 µM): 0.229 | relative viability ([4]; first compound 0.3162 µM): 0.189 | relative viability ([4]; first compound 1 µM): 0.134 | relative viability ([5]; first compound 0.01 µM): 1.01 | relative viability ([5]; first compound 0.03162 µM): 1.02 | relative viability ([5]; first compound 0.1 µM): 1 | relative viability ([5]; first compound 0.3162 µM): 0.985 | relative viability ([5]; first compound 1 µM): 0.659 | relative viability ([6]; first compound 0.01 µM): 0.979 | relative viability ([6]; first compound 0.03162 µM): 0.897 | relative viability ([6]; first compound 0.1 µM): 0.795 | relative viability ([6]; first compound 0.3162 µM): 0.612 | relative viability ([6]; first compound 1 µM): 0.433 | relative viability ([7]; first compound 0.01 µM): 0.731 | relative viability ([7]; first compound 0.03162 µM): 0.741 | relative viability ([7]; first compound 0.1 µM): 0.645 | relative viability ([7]; first compound 0.3162 µM): 0.612 | relative viability ([7]; first compound 1 µM): 0.478 | relative viability ([8]; first compound 0.01 µM): 0.894 | relative viability ([8]; first compound 0.03162 µM): 0.886 | relative viability ([8]; first compound 0.1 µM): 0.825 | relative viability ([8]; first compound 0.3162 µM): 0.861 | relative viability ([8]; first compound 1 µM): 0.852 | relative viability ([9]; first compound 0.01 µM): 1.2 | relative viability ([9]; first compound 0.03162 µM): 1.1 | relative viability ([9]; first compound 0.1 µM): 1.16 | relative viability ([9]; first compound 0.3162 µM): 0.649 | relative viability ([9]; first compound 1 µM): 0.436 | relative viability ([10]; first compound 0.01 µM): 0.995 | relative viability ([10]; first compound 0.03162 µM): 0.962 | relative viability ([10]; first compound 0.1 µM): 1 | relative viability ([10]; first compound 0.3162 µM): 1 | relative viability ([10]; first compound 1 µM): 1 | relative viability ([11]; first compound 0.01 µM): 0.729 | relative viability ([11]; first compound 0.03162 µM): 0.782 | relative viability ([11]; first compound 0.1 µM): 0.775 | relative viability ([11]; first compound 0.3162 µM): 0.753 | relative viability ([11]; first compound 1 µM): 0.646 | relative viability ([12]; first compound 0.01 µM): 0.826 | relative viability ([12]; first compound 0.03162 µM): 0.781 | relative viability ([12]; first compound 0.1 µM): 0.727 | relative viability ([12]; first compound 0.3162 µM): 0.751 | relative viability ([12]; first compound 1 µM): 0.9 | relative viability ([13]; first compound 0.01 µM): 1.3 | relative viability ([13]; first compound 0.03162 µM): 1.15 | relative viability ([13]; first compound 0.1 µM): 1.27 | relative viability ([13]; first compound 0.3162 µM): 1.08 | relative viability ([13]; first compound 1 µM): 1.11 | relative viability ([14]; first compound 0.01 µM): 1.18 | relative viability ([14]; first compound 0.03162 µM): 1.08 | relative viability ([14]; first compound 0.1 µM): 1.45 | relative viability ([14]; first compound 0.3162 µM): 1.34 | relative viability ([14]; first compound 1 µM): 1.27 | relative viability ([15]; first compound 0.01 µM): 0.843 | relative viability ([15]; first compound 0.03162 µM): 0.75 | relative viability ([15]; first compound 0.1 µM): 0.727 | relative viability ([15]; first compound 0.3162 µM): 0.797 | relative viability ([15]; first compound 1 µM): 0.776 | relative viability ([16]; first compound 0.01 µM): 0.886 | relative viability ([16]; first compound 0.03162 µM): 0.666 | relative viability ([16]; first compound 0.1 µM): 0.8 | relative viability ([16]; first compound 0.3162 µM): 0.407 | relative viability ([16]; first compound 1 µM): 0.19 | relative viability ([17]; first compound 0.01 µM): 0.808 | relative viability ([17]; first compound 0.03162 µM): 0.79 | relative viability ([17]; first compound 0.1 µM): 0.671 | relative viability ([17]; first compound 0.3162 µM): 0.445 | relative viability ([17]; first compound 1 µM): 0.27 | relative viability ([18]; first compound 0.01 µM): 0.549 | relative viability ([18]; first compound 0.03162 µM): 0.514 | relative viability ([18]; first compound 0.1 µM): 0.481 | relative viability ([18]; first compound 0.3162 µM): 0.503 | relative viability ([18]; first compound 1 µM): 0.421 | relative viability ([19]; first compound 0.01 µM): 1.28 | relative viability ([19]; first compound 0.03162 µM): 1.02 | relative viability ([19]; first compound 0.1 µM): 1.04 | relative viability ([19]; first compound 0.3162 µM): 0.61 | relative viability ([19]; first compound 1 µM): 0.104 | relative viability ([20]; first compound 0.01 µM): 0.712 | relative viability ([20]; first compound 0.03162 µM): 0.611 | relative viability ([20]; first compound 0.1 µM): 0.761 | relative viability ([20]; first compound 0.3162 µM): 0.491 | relative viability ([20]; first compound 1 µM): 0.35 | relative viability ([21]; first compound 0.01 µM): 1.14 | relative viability ([21]; first compound 0.03162 µM): 0.72 | relative viability ([21]; first compound 0.1 µM): 0.329 | relative viability ([21]; first compound 0.3162 µM): 0.207 | relative viability ([21]; first compound 1 µM): 0.236 | relative viability ([22]; first compound 0.01 µM): 0.968 | relative viability ([22]; first compound 0.03162 µM): 0.946 | relative viability ([22]; first compound 0.1 µM): 1.02 | relative viability ([22]; first compound 0.3162 µM): 1.09 | relative viability ([22]; first compound 1 µM): 0.591

Reference: the supplement of paper PMC10307832
